Laboratory results from patent US20240043390A1, “COMPOSITIONS AND METHODS FOR TREATING CANCER” (The Regents of the University of California, priority 2017, published 2024).
Read-outs that look alike come from different tables or passages of the source.

What was measured:
[1] = system: HK301 cells; assay: Annexin V apoptosis assay; assay type: cell-based, human; conditions: HK301 gliomaspheres, 72 hours, nutlin 2.5 μM
Description: (§1) Cells were collected and analyzed for Annexin V and PI staining according to manufacturer's protocol (BD Biosciences). Briefly, cells were plated at 5×10^4 cells/ml and treated with appropriate drugs. Following indicated time points, cells were collected, trypsinized, washed with PBS, and stained with Annexin V and PI for 15 minutes. Samples were then analyzed using the BD LSRII flow cytometer.
(§2) Annexin V staining was measured following 72 hrs of treatment. Using the Chalice software, the response of the combination was compared to its single agents. The combinatorial effects were calculated using the synergy score.

[2] = system: patient-derived GBM gliomaspheres; assay: Annexin V apoptosis assay; assay type: cell-based, human; conditions: for lethality in combination with nutlin: EGFRi non-responder cells (HK393, HK254)
Description: as §1, §2

[3] = Protein binding (fraction unbound) in blood and brain; assay type: in vitro ADME
Description: (§3) Fu refers to “fraction unbound”.

[4] = Kpuu; assay type: in vivo; conditions: average; for Kp uu: brain/blood
Description: as §3

[5] = system: GBM39 intracranial xenografts; assay: 18F-FDG PET/CT imaging of intracranial xenografts; assay type: in vivo, NSG mice; conditions: erlotinib 75 mg/kg, 15 hours post administration
Description: (§4) Drugs were administered through oral gavage.
(§5) Following 1 hr unconscious uptake, mice were taken off anesthesia but kept warm for another 5 hr of uptake. 6 hr after the initial administration of ^18F-FDG, mice were imaged using G8 PET/CT scanner (Sofie Biosciences). Per above, quantification was performed by drawing 3D regions of interest (ROI) using the AMIDE software.

[6] = system: HK393 intracranial xenografts; assay: 18F-FDG PET/CT imaging of intracranial xenografts; assay type: in vivo, NSG mice; conditions: acute EGFRi (erlotinib 75 mg/kg)
Description: as §4, §5

[7] = system: gliomas; conditions: cited from earlier work
[8] = system: HK301; assay: GI50 assay, Cell Titer Glo, 3 days; assay type: cell-based, human; conditions: HK301, FIG. 2
Description: The GI50 Assays were performed using patient-derived glioblastoma cells. […] Cells were incubated for 3 days and then proliferation was assessed by Cell Titer Glo (Promega #G7570).

[9] = system: GBM39; assay: GI50 assay, Cell Titer Glo, 3 days; assay type: cell-based, human; conditions: GBM39, FIG. 2
[10] = Pharmacokinetic studies, plasma and brain; assay type: in vivo, male CD-1 mice; conditions: oral; JGK005 10 mg/kg, erlotinib 25 mg/kg; FIG. 1
Description: Pharmacokinetic studies were performed on male CD-1 mice aged 8-10 weeks. Mice were dosed as indicated in duplicates. At the time points, whole blood was obtained by retro-orbital bleeding and brain tissue was harvested. Blood samples were centrifuged to obtain plasma and brain tissue was washed and homogenized. Samples were extracted with acetonitrile and supernatant was dried using a speed-vac. Dried samples were solubilized in 50:50:0.1 acetonitrile:water:formic acid and quantified on an Agilent 6400 series Triple Quadrupole LC/MS.

[11] = system: HK393 and HK254 cells; assay: 18F-FDG uptake assay in cells; assay type: cell-based, human; conditions: 4 hours, pictilisib 1 μM
Description: Cells were plated at 5×10^4 cells/ml and treated with designated drugs for indicated time points. Following appropriate treatment, cells were collected and resuspended in glucose-free DMEM/F12 (USBiological) containing ^18F-FDG (radioactivity 1 μCi/mL). Cells were incubated at 37° C. for 1 hr and then washed three times with ice cold PBS. Radioactivity of each sample was then measured using a gamma counter.

O=CC[C@@H](O)[C@H](O)[C@H](O)CO [2DG, 2-deoxyglucose]
synergy with nutlin [1]: synergy with nutlin
lethality in combination with nutlin [2]: synergistic lethality

COc1cc2ncnc(Nc3cccc(Cl)c3F)c2cc1OC(=O)N1CCN(C)C[C@H]1C [AZD3759]
Bound (blood) [3]: 94.07%
Bound (brain) [3]: 97.23%
fraction unbound [3]: 0.0277
fraction unbound ([3]; blood): 0.0593
Kpuu (Avg) [4]: 1.30

C#Cc1cccc(Nc2ncnc3cc(OCCOC)c(OCCOC)cc23)c1 [Erlotinib]
Kp uu [4]: 0.0513
apoptosis (annexin V staining) ([2]; non-responders, 72 hours of erlotinib exposure, 1 μM): −3%
18F-FDG uptake (PET) [5]: rapidly reduced ^18F-FDG uptake
18F-FDG uptake (PET) [6]: no changes in ^18F-FDG uptake
response rates [7]: ≤ 25%

C#Cc1cccc(Nc2ncnc3cc4c(cc23)OCCO4)c1 [JGK005]
activity against EGFR mutant glioblastoma [8]: lower activity than erlotinib
activity against EGFR mutant glioblastoma [9]: lower activity than erlotinib
CNS penetration [10]: good CNS penetration compared to erlotinib

Fc1c(Cl)cccc1Nc1ncnc2cc3c(cc12)OCCO3 [JGK010]
Bound (blood) ([3]; blood (first line of each compound)): 99.48%
fraction unbound ([3]; blood (first line of each compound), read-out: Fu (blood)): 0.0052
Bound (brain) ([3]; brain (second line of each compound)): 99.44%
fraction unbound ([3]; brain (second line of each compound), read-out: Fu (brain)): 0.0056
Kp uu [4]: 1.15

Fc1c(Br)cccc1Nc1ncnc2cc3c(cc12)OCCO3 [JGK037, N-(3-Bromo-2-fluorophenyl)-7,8-dihydro[1,4]dioxino[2,3-g]quinazolin-4-amine]
Kpuu (Avg) [4]: 1.2994

CC[C@H]1/C=C/C=C/C[C@@H](C)[C@H](O)[C@@](C)(O)C(=O)[C@@H](C)[C@H](O)[C@@H](C)C(=O)[C@@H](C)[C@H](O)[C@@H](C)/C=C/C(=O)O[C@@H]2[C@H](C)[C@H](CC1)O[C@]1(CC[C@H](C)[C@H](C[C@@H](C)O)O1)[C@H]2C [oligomycin]
synergy with nutlin [1]: did not synergize with nutlin treatment

CS(=O)(=O)N1CCN(Cc2cc3nc(-c4cccc5[nH]ncc45)nc(N4CCOCC4)c3s2)CC1 [pictilisib]
lethality in combination with nutlin [2]: synergistic lethality
18F-FDG uptake [11]: significantly reduced ^18F-FDG uptake

C=C(C)[C@H]1Cc2c(ccc3c2O[C@@H]2COc4cc(OC)c(OC)cc4[C@@H]2C3=O)O1 [rotenone]
synergy with nutlin [1]: did not synergize with nutlin treatment
